Consider 53 compounds from PubChem BioAssay AID179 (DTP/NCI, 2004).

Active and inactive are the calls of the source.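 Rule for the calls: active = compounds giving half or more protection of infected cells from virus-caused growth loss, again on retest; inactive = the rest.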 A value given as a limit tells only on which side of the number the result lay.

In this assay the test system is CEM cells HIV-1 protection, formazan growth assay. The experiment in a line: NCI AIDS Antiviral Assay. To be noted: for IC50: measured here: growth of uninfected CEM cells. Summed up:
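Protection of CEM cells against HIV-1 measured as cell growth via soluble formazan read-out, with five concentrations tested on both infected and uninfected cells; failure to protect may reflect toxicity.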

One may read the EC50 as the midpoint of the concentration-response curve. As a reminder, the IC50 is the concentration needed to halve the response being measured. Higher therefore signals lower potency.

In the case of `CS(=O)(=O)O/N=c1/cc(-c2ccccc2)oc2ccccc12`, the EC50 is more than 200 µM and the IC50 is more than 200 µM.
In the case of `Cn1ccc2c(C(=O)c3ccccc3)cccc2c1=O`, the result was inactive.
For the compound `CN(C)COC(=S)SSSC(=S)OCN(C)C`, the EC50 is 0.195 µM and the IC50 turned out to be 0.724 µM.
In the case of `O=S1(=O)OC(c2ccc(O)c(Cl)c2)(c2ccc(O)c(Cl)c2)c2ccccc21`, the result was inactive.
For the compound `N#CCCN(CCC#N)c1ccc(/C=C(/NC(=O)Nc2ccccc2Cl)NC(=O)c2cc([N+](=O)[O-])ccc2Cl)cc1`, the EC50 is more than 12.3 µM and the IC50 turned out to be 1.91 µM.
In the same order, the values of `O=C(O)c1cccc(OCCOc2cccc(C(=O)O)c2[N+](=O)[O-])c1[N+](=O)[O-]` are more than 200 µM and more than 200 µM.
In the same order, the values of `CCOC(=O)C(Cc1c2ccccc2cc2ccccc12)(NC(C)=O)C(=O)OCC` are more than 200 µM and more than 200 µM.
In the same order, the values of `Cc1ccc(NC(=O)c2cnccn2)c(=O)o1` are more than 200 µM and more than 200 µM.
For `NC(=O)C12C(=O)NC(=O)C1(C(=O)O)C2C1CCCCC1` (stereo unspecified), the outcome was inactive.
As to `COc1nc2c(c(=O)n1C)N=C(c1ccccc1)[C@H](C(CC(=O)c1ccccc1)c1ccccc1)C(c1ccccc1)N2` (stereo partly specified), the outcome was inactive.
As for `O=C1C(=O)c2ccccc2C(O)=C1C(C1=C(O)c2ccccc2C(=O)C1=O)c1ccccc1`, the EC50 was more than 200 µM and the IC50 was 20.9 µM.
`c1ccc(C2=NN(c3ccccc3)C3(S2)SC(c2ccccc2)(c2ccccc2)c2ccccc23)cc1` (stereo unspecified): the EC50 was more than 50.1 µM and the IC50 is more than 50.1 µM.
Turning to `Cc1nc(-c2cc3cc([N+](=O)[O-])ccc3oc2=O)cs1`, the EC50 is more than 200 µM and the IC50 came out at 74.1 µM.
In the same order, the values of `COc1ccc(N2C(=O)[C@@H](N=[N+]=[N-])[C@@H]2[C@H]2COC(C)(C)O2)cc1` are more than 407 µM and more than 407 µM.
As to `C=CCn1c(=N)/c(=C(\N)O)s/c1=C1/SC(=S)N(c2ccc(C)cc2)C1=O`, the EC50 was more than 6.76 µM and the IC50 is more than 6.76 µM.
As to `CC(C)(c1ccc(OC#N)cc1)c1ccc(OC#N)cc1`, the EC50 is more than 67.6 µM and the IC50 was more than 67.6 µM.
For `CCOC(=O)N[C@@H]1C(CC(=O)OC)O[C@H]2OC(C)(C)O[C@H]21` (stereo partly specified), the EC50 was more than 832 µM and the IC50 was more than 832 µM.
For `Oc1ccc2ccccc2c1NCn1nc(CCCCCCCCc2nn(CNc3c(O)ccc4ccccc34)c(=S)o2)oc1=S`, the EC50 was more than 200 µM and the IC50 came to 37.2 µM.
For `Cc1ccc(SC2C(=O)C3CC(OCc4ccccc4)C2(C)C3(C)C)cc1` (stereo unspecified), the EC50 is more than 200 µM and the half-inhibitory concentration (IC50) is more than 200 µM.
`CC(NC(=O)C(N)CC(=O)O)NC(=O)N1CCOCC1` (stereo unspecified): the EC50 is more than 200 µM and the IC50 is more than 200 µM.
As to `COc1ccc(-n2[nH]c(=O)n(C)c2=O)cc1`, the EC50 was more than 200 µM and the IC50 was more than 200 µM.
Take `Cc1ccc(-n2c(C)n[nH]c2=O)cc1`: the EC50 was more than 200 µM and the IC50 is more than 200 µM.
`Nc1nc2cc[nH]c2c(=O)[nH]1`: the EC50 was more than 661 µM and the IC50 was more than 661 µM.
Turning to `CC(C)CC12CC3CCC(CNC1=O)C32C` (stereo unspecified), the result was inactive.
Regarding `C=CCN1CCC(O)(c2cc(C(=O)OCC)[nH]c2-c2cc(C)no2)C1` (stereo unspecified), the EC50 was more than 200 µM and the IC50 is more than 200 µM.
Take `O=S(=O)(c1ccc(Br)cc1)n1c2ccc(Br)cc2c2nc3ccccc3nc21`: the EC50 was more than 100 µM and the IC50 is more than 100 µM.
Consider `CCOc1ccccc1NC(=O)CCC(=O)NN`, for which the EC50 is more than 145 µM and the concentration for half-maximal inhibition (IC50) is more than 145 µM.
Consider `COC(=O)[C@@H](NC(=O)N(CCC#N)CCNc1ccccc1)C(C)C`, for which the EC50 is more than 200 µM and the IC50 is more than 200 µM.
For the compound `O=C1c2ccccc2C(=O)c2sccc21`, the EC50 is more than 200 µM and the IC50 was found to be 7.24 µM.
In the case of `O=C(O)C1NCCc2c1[nH]c1ccccc21` (stereo unspecified), the outcome was inactive.
`O=c1ccc(=O)n(CO)[nH]1`: the EC50 was more than 1780 µM and the IC50 came out at 97.7 µM.
In the same order, the values of `COc1nc2c(c(=O)n1C)N[C@H]1[C@H](OC(C)=O)[C@@H](OC(C)=O)CO[C@H]1N2` are more than 200 µM and more than 200 µM.
With `C#Cc1c(C)c(/C=C/C(C)=C/C(=O)OC)n(C)c1C`, the outcome was inactive.
Regarding `CCOC(=O)/C(=C\c1cccc(F)c1)[Se]c1ccccc1`, the EC50 is more than 38.9 µM and the IC50 was more than 38.9 µM.
For the compound `CCCCC12C3CC4C5C(C)/C(=C6\OC(=O)C(C)=C6OC)OC5(O3)C1CCN42` (stereo unspecified), the EC50 is more than 50.1 µM and the IC50 is more than 50.1 µM.
In the case of `O=P(O)(O)Cc1c(Cl)c(Cl)c(CP(=O)(O)O)c(Cl)c1Cl`, the EC50 is more than 200 µM and the IC50 is more than 200 µM.
Compound `[N-]=[N+]=NC1CC(n2cc(C(OCC(F)(F)F)OCC(F)(F)F)c(=O)[nH]c2=O)OC1CO` (stereo unspecified) displayed an EC50 of 25.1 µM and an IC50 of 107 µM.
Consider `COC1/C=C\OC2(C)Oc3c(C)c(O)c4c(O)c(c(C=Nc5ccc6ccccc6c5)c(O)c4c3C2=O)NC(=O)/C(C)=C\C=C/C(C)C(O)C(C)C(O)C(C)C(OC(C)=O)C1C` (stereo unspecified), for which the EC50 was more than 200 µM and the IC50 stood at 35.5 µM.
Take `O=C(Nc1cccc2nsnc12)c1ccc(C(=O)Nc2cccc3nsnc23)cc1`: the EC50 was more than 22.9 µM and the IC50 was more than 22.9 µM.
Regarding `CC1=NNC(=O)C1C(C/C(=N/O)c1c[nH]c2ccccc12)C(=O)O` (stereo unspecified), the EC50 was more than 100 µM and the IC50 was more than 100 µM.
For the compound `CC(C)=CCN1c2ccccc2NC(=O)CC1C` (stereo unspecified), the 50% effective concentration (EC50) is 7.94 µM and the IC50 amounted to 91.2 µM.
Turning to `CC[N+]1(CC)CC[N+]2(CCCC(C)CC2)CC1` (stereo unspecified), the outcome was inactive.
`CCCCCCCCCCCC[N+]12CC[N+](C)(CC1)CC2`: the EC50 was more than 251 µM and the IC50 was found to be 14.8 µM.
As to `c1nc2c([nH]1)CCNC2c1ccc2c(c1)OCO2` (stereo unspecified), the outcome was inactive.
`C/C(=N\NC(N)=O)C(CN1CCOCC1)C(c1ccccc1)c1c(O)c2ccccc2oc1=O` (stereo unspecified): the EC50 was more than 81.3 µM and the IC50 was 67.6 µM.
In the same order, the values of `CCOC(=O)NN(C(=O)OCC)c1ccc(N=Nc2ccc(OC)cc2)n1C` are more than 200 µM and 26.9 µM.
For `Nc1ccc(/C=C/c2ccc(NS(=O)(=O)c3ccnc4c(O)c(C(=O)O)ccc34)cc2S(=O)(=O)O)c(S(=O)(=O)O)c1`, the EC50 is 69.2 µM and the IC50 is more than 100 µM.
With `C=CCC(O)C1=CC(=O)c2c(O)ccc(O)c2C1=O` (stereo unspecified), the result was inactive.
`C=CCOc1cccc(C2(O)c3ccccc3C3=NCCCN32)c1` (stereo unspecified): the EC50 was more than 200 µM and the IC50 came out at 37.2 µM.
In the same order, the values of `CC(C)[Si]1(C(C)C)OCC2OC3(CO)C(Oc4nc(=O)ccn43)C2O[Si](C(C)C)(C(C)C)O1` (stereo unspecified) are more than 200 µM and 18.6 µM.
For the compound `COc1cc(OC)c(C2(c3c(OC(C)C)c(=O)c3=O)SCCCS2)cc1OC`, the EC50 is more than 200 µM and the IC50 was 170 µM.
With `O=[N+]([O-])c1ccc(O)c(C=NCC2CCCN3CCCCC23)c1` (stereo unspecified), the EC50 was more than 200 µM and the IC50 came to 39.8 µM.
For the compound `Nc1nc(Cl)c(CO)c(NCC2(CO)CCC2)n1`, the EC50 was more than 200 µM and the IC50 stood at 191 µM.
